Measured values published in US8481738B2, “Gonadotropin-releasing hormone receptor antagonists and methods relating thereto” (Neurocrine Biosciences, Inc., priority 2007, dated 2013).
pKi: −log10 of the molar value.

Target: T1, human GnRH receptor (Homo sapiens, UniProt P30968)
T1 construct: expressed in transfected cells; host or cells: RBL cells, stably transfected (in general)
T1 sequence (P30968 1-328): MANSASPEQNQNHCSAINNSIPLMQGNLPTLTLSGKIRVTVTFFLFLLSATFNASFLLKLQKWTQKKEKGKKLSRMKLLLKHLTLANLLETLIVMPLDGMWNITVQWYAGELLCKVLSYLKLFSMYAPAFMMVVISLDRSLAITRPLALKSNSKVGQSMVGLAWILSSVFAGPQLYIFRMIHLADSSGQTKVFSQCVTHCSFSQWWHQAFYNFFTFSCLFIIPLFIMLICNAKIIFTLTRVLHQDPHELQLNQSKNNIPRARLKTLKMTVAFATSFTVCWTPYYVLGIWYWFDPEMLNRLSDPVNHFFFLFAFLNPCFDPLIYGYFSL
Assay: Peptide competition radioligand binding displacement assay, human GnRH receptor membranes
Settings: one or more of the peptide competition human receptor binding assays
Description: cDNA's of human, rhesus macaque, rabbit, dog and rat GnRH receptors are cloned into pcDNA3.1 (+) (Invitrogen). Full length sequences of all receptors are confirmed by DNA sequencing. HEK 293, CHO, COS-7, or rat basophilic leukemia (RBL) cells are stably transfected with human, rat, or macaque GnRH receptors and high expressing single cell clones (Bmax≧0.4 pMol/mg membrane protein) are isolated and maintained in Dulbecco's Modified Eagles Medium (DMEM) with following supplements: 10 mM HEPES; 2 mM L-glutamine; 1 mM Sodium Pyruvate; 50 U/mL penicillin, 50 μg/mL streptomycin; 10% Heat-inactivated Fetal Bovine Serum and 200 μg/mL Geneticin (G-418-Sulfate). Non-essential amino acids (0.1 mM) (Irvine Scientific; Santa Ana, Calif.) are included in the RBL cell media.
In general, initial peptide radioligand binding assays are carried out using membranes from stably transfected RBL cells. RBL stable clones are found to more consistently express high levels of GnRH receptor and are therefore used for subsequent binding studies as well as Ca^++ flux and inositol phosphate accumulation assays. Transiently transfected COS-7 cells are used for preparation of membranes containing GnRH receptors from multiple species (as well as those of mutant receptors for other studies) because of the convenience for rapidly analyzing multiple receptors.
HEK293 cells stably transfected with the human GnRH receptor are grown for two days after achieving confluence then are harvested by striking tissue culture flasks against a firm surface. Cells are collected by centrifugation at 1000 g for 5 minutes. Cell pellets are resuspended in 5% sucrose and homogenized using a polytron homogenizer for two 15 second homogenization steps. Cell homogenates are then centrifuged for 5 minutes at 3000 g to remove nuclei and the supernatant subsequently centrifuged for 30 minutes at 44,000 g to collect the membrane fraction. The membrane pellet is resuspended in GnRH binding buffer (10 mM HEPES, pH 7.5, 150 mM NaCl and 0.1% BSA) and aliquots immediately snap-frozen in liquid nitrogen and stored at −80° C. Protein content of the membrane suspension is determined using the Bio-Rad protein assay kit (Bio-Rad).
RBL cells stably transfected with the human GnRH receptor are grown to 80% confluency prior to harvesting. The cells are incubated at 37° C. for 10 min in 0.5 mM EDTA/PBS (Ca^++, Mg^++ free), and are dislodged from the plate by gentle rapping of the flasks. Cells are collected and pelleted by centrifugation at 1000 g for 5 minutes. Cell pellets are resuspended in buffer (DPBS supplemented with 10 mM MgCl2, 2 mM EGTA, pH=7.4), and cell lysis is performed using a pressure cell and applying N2 at a pressure of 900 psi for 30 min at 4° C. Unbroken cells and larger debris were removed by centrifugation at 1200 g for 10 min at 4° C. The cell membrane supernatant is then centrifuged at 45,000 g and the resulting membrane pellet is resuspended in assay buffer and homogenized on ice using a tissue homogenizer. Protein concentrations are determined using the Coomassie Plus Protein Reagent kit. Membranes are aliquoted and stored at −80° C. until ready for use.
COS-7 cells transiently transfected with GnRH receptors from different species (human, macaque, dog, rabbit, rat) or mutant GnRH receptors are prepared by bulk electroporation. COS-7 cells are obtained from American Type Cell Culture (Manassas, Va.) and are maintained in Dulbeccos's modified Eagle's medium (DMEM) (MediaTech Inc., Herndon, Va.) containing 10% fetal bovine serum, 10 mM HEPES, 2 mM L-glutamine, 1 mM sodium pyruvate, 50 U/mL penicillin, 50 μg/mL streptomycin. COS-7 cells are seeded in 500 cm^2 tissue culture plates and grown to confluency prior to cell transfection. […]

pKi, ≥ 7.00:
COc1cc(Cl)c(-c2cnc(C(F)(F)F)cc2C#N)cc1C(=O)N(C)c1c(C)cccc1C [39-1, 4-Chloro-5-(4-cyano-6-trifluoromethyl-pyridin-3-yl)-N-(2,6-dimethyl-phenyl)-2-methoxy-N-methyl-benzamide]
COc1c(Cl)cccc1N(C)C(=O)c1ccc(Cl)c(-c2cnc(Cl)cc2C)c1 [2-42]
COc1ccccc1N(C)C(=O)c1cc(-c2cnc(C(F)(F)F)cc2C#N)c(Cl)cc1OCCN(C)S(C)(=O)=O [48-2, 4-Chloro-5-(4-cyano-6-trifluoromethyl-pyridin-3-yl)-2-[2-(methanesulfonyl-methyl-amino)-ethoxy]-N-(2-methoxy-phenyl)-N-methyl-benzamide]
Cc1cc(C(F)(F)F)nc(=O)n1-c1cc(C(=O)N(C)c2cccc(F)c2)ccc1Cl [30-17]
COc1ccccc1N(C)C(=O)c1cc(-c2cnc(C(F)(F)F)cc2C#N)c(Cl)cc1OCCCC(=O)OC(C)OC(=O)OC1CCCCC1 (centres unmarked) [37-3, 4-{5-chloro-4-(4-cyano-6-trifluoromethyl-pyridin-3-yl)-2-[(2-methoxy-phenyl)-methyl-carbamoyl]-phenoxy}-butyric acid 1-cyclohexyloxycarbonyloxy-ethyl ester]
COc1ccccc1N(C)C(=O)c1ccc(Cl)c(-c2cnc(Cl)cc2Cl)c1 [2-3]
Cc1ccccc1N(C)C(=O)c1cc(-c2nc3ccccc3cc2C#N)c(Cl)cc1OCCCC(=O)O [20-3]
COC(=O)COc1ccccc1N(C)C(=O)c1ccc(Cl)c(-c2cnc(Cl)cc2C)c1 [3-1, (2-{[4-chloro-3-(6-chloro-4-methyl-pyridin-3-yl)-benzoyl]-methyl-amino}-phenoxy)-acetic acid methyl ester]
Cc1cccc(C)c1N(C)C(=O)c1cc(-c2nc3ccccc3cc2C#N)c(Cl)cc1OCCCCO [21-6]
COc1cc(Cl)c(-c2cnc(C(F)(F)F)cc2C#N)cc1C(=O)N(C)c1cc(F)ccc1OC [39-5]
COc1ccccc1CN(C)C(=O)c1cc(-c2cnc(C(F)(F)F)cc2C#N)c(Cl)cc1OC [39-17]
COc1c(Cl)cccc1N(C)C(=O)c1ccc(Cl)c(-c2ncc(C)cc2C)c1 [2-70]
COc1cc(Cl)c(-c2cnc(C(F)(F)F)cc2C#N)cc1C(=O)N(C)c1ncccc1C [39-21]
COC(=O)c1ccc(Cl)cc1N(C)C(=O)c1cc(-c2cnc(C(F)(F)F)cc2C#N)c(Cl)cc1OC [39-8]
Cc1cccc(C)c1N(C)C(=O)c1ccc(Cl)c(-c2ncc(C(F)(F)F)cc2Cl)c1 [2-65]
Cc1cc(Cl)ncc1-c1cc(C(=O)N(C)c2c(C)cccc2OCCCC(=O)O)ccc1Cl [4-3]
CN(C(=O)c1cc(-c2cnc(C(F)(F)F)cc2C#N)c(Cl)cc1OCCCC(=O)O)c1ccccc1-c1ccco1 [34-16]
COc1cccc(N(C)C(=O)c2ccc(Cl)c(-c3ncc(Cl)cc3Cl)c2)c1 [19-9]
Cc1ccccc1N(C)C(=O)c1cc(-c2cnc(Cl)cc2Cl)c(Cl)cc1OCCCC(=O)O [20-2]
COc1ccccc1N(C)C(=O)c1cc(-c2cnc(C(F)(F)F)cc2C#N)c(Cl)cc1OCCn1ccnc1 [42-3]
Cc1cc(C(F)(F)F)nc(=O)n1-c1cc(C(=O)N(C)c2cc(F)ccc2Cl)ccc1Cl [30-9]
CN(C(=O)c1ccc(Cl)c(-c2cnc(C(F)(F)F)cc2C#N)c1)c1ccccc1OCCN1CCC[C@@H]1C(=O)O [50-2]
Cc1cc(Cl)c(-c2cc(C(=O)N(C)c3cccc(C(F)(F)F)c3C)ccc2Cl)c(C)n1 [2-25]
CN(C(=O)c1cc(-c2cnc(C(F)(F)F)cc2C#N)c(Cl)cc1OCCCC(=O)O)c1ccccc1-c1cnco1 [34-15]
COc1ccccc1N(C)C(=O)c1ccc(Cl)c(-c2ccc(Cl)cc2C#N)c1 [2-55]
CN(C(=O)c1ccc(Cl)c(-c2cnc(C(F)(F)F)cc2C#N)c1)c1ccccc1OCCCc1nnn[nH]1 [28-1, 4-Chloro-3-(4-cyano-6-trifluoromethyl-pyridin-3-yl)-N-methyl-N-{2-[3-(1H-tetrazol-5-yl)-propoxy]-phenyl}-benzamide]
COc1ccccc1N(C)C(=O)c1cc(-c2cnc(C(F)(F)F)cc2C#N)c(Cl)cc1CC(=O)O [44-1, {5-Chloro-4-(4-cyano-6-trifluoromethyl-pyridin-3-yl)-2-[(2-methoxy-phenyl)-methyl-carbamoyl]-phenyl}-acetic acid]
CN(C(=O)c1ccc(Cl)c(-c2nc3cccc(F)c3cc2C#N)c1)c1ccccc1OCCCC(=O)O [33-1, 4-(2-{[4-Chloro-3-(3-cyano-5-fluoro-quinolin-2-yl)-benzoyl]-methyl-amino}-phenoxy)-butyric acid]
Cc1cc(C#N)ncc1-c1cc(C(=O)N(C)c2ccccc2CCCC(=O)O)ccc1Cl [14-3]
Cc1c(F)cccc1N(C)C(=O)c1ccc(Cl)c(-n2c(C)cc(C(F)(F)F)nc2=O)c1 [30-7]
Cc1cc(C(F)(F)F)ncc1-c1cc(C(=O)N(C)c2cccc(F)c2OCCCC(=O)O)ccc1Cl [4-7]
CN(C(=O)c1ccc(Cl)c(-c2cnc(C(F)(F)F)cc2C#N)c1)c1ccccc1OCCC(=O)N1CCNCC1 [53-2, 4-Chloro-3-(4-cyano-6-trifluoromethyl-pyridin-3-yl)-N-methyl-N-[2-(3-oxo-3-piperazin-1-yl-propoxy)-phenyl]-benzamide]
COc1ccccc1N(C)C(=O)c1ccc(Cl)c(-c2ncc(C)cc2Cl)c1 [2-58]
CN(C(=O)c1cc(-c2cnc(C(F)(F)F)cc2C#N)c(Cl)cc1OCCCC(=O)O)c1ccccc1OC(F)(F)F [34-3]
COc1ccccc1N(C)C(=O)c1cc(-c2cnc(C(F)(F)F)cc2C#N)c(Cl)cc1OCCNC(C)=O [47-1, 2-(2-Acetylamino-ethoxy)-4-chloro-5-(4-cyano-6-trifluoromethyl-pyridin-3-yl)-N-(2-methoxy-phenyl)-N-methyl-benzamide]
COc1ccccc1N(C)C(=O)c1ccc(Cl)c(-c2cnc(C)cc2Cl)c1 [2-8]
COC(=O)CCCOc1cccc(C)c1N(C)C(=O)c1ccc(Cl)c(-c2cnc(C#N)cc2C)c1 [3-9]
CN(C(=O)c1ccc(Cl)c(-c2cnc(C(F)(F)F)cc2C#N)c1)c1ccccc1OCCCN1CCC[C@H]1C(=O)O [50-1, (S)-1-[3-(2-{[4-Chloro-3-(4-cyano-6-trifluoromethyl-pyridin-3-yl)-benzoyl]-methyl-amino}-phenoxy)-propyl]-pyrrolidine-2-carboxylic acid]
